Experimental data published in a melting point compilation (Tetko et al.; mined from patent text by program, amines drawn as free bases though some values may be those of a salt).

Row | Structure (SMILES) | melting point [°C]
1 | Fc1cccc(F)c1-c1nc(/C=C/c2ccc(C3CCCCC3)cc2)no1 | 86 to 87
2 | COc1cc(O)nc(C(C)(C)C)n1 | 175
3 | O=C(O)c1cn(-c2ccc(Br)cc2)c(-c2ccc(Cl)cc2Cl)n1 | 138 to 142
4 | CC(C)c1ccc(NC(=O)NCCc2ccccn2)cc1 | 72 to 73
5 | COc1ccc(Cc2cc3cccc(-c4cccc(C(=O)O)c4)c3o2)cc1OC | 122 to 123
6 | CC(C)c1nn(-c2ncc(C(F)(F)F)cn2)cc1CCCO | 98 to 99
7 | O=C(Nc1cc(-n2cccn2)nc(-c2ccco2)n1)OCc1cccnc1 | 254 to 256
8 | O=C(Cc1ccccc1)c1ccc[nH]1 | 92 to 94
9 | N#Cc1cnc2sc(-c3ccc(C=O)cc3)cc2c1Nc1cccc2[nH]ccc12 | > 245
10 | CCNC(=O)Nc1nccc(-c2ccncc2)n1 | 204 to 207
11 | CC(C)C(NC(=O)Cn1cc(Cc2ccccc2)cc(NC(=O)OCc2ccccc2)c1=O)C(=O)C(F)(F)F (configuration not stated) | 58 to 64
12 | CCOC(=O)C=Cc1cccc(N)c1 | 84 to 85
13 | CCCCCC(=O)NC(=O)N1CC1C#N (configuration not stated) | 143 to 144
14 | CNC(=O)Cc1ccc(CC(=O)O)cc1 | 102 to 104
15 | C=CCOc1ccc2c(c1)Oc1cc(O)ccc1C21OC(=O)c2ccccc21 (configuration not stated) | 204
16 | Clc1ccc(-c2cc3ccccc3s2)cc1 | 193 to 194
17 | Cn1c([N+](=O)[O-])cnc1-c1nc(Cl)c2ccccc2n1 | 178 to 181
18 | CC(C)CCCC(C)C1CCC2C3=CC=C4CC(O)C(OCCCO)C(O)C4(C)C3CCC21C (configuration not stated) | 114 to 116
19 | N=C(N)c1ccc(O)c([N+](=O)[O-])c1 | > 240
20 | O=C(Nc1ccc([N+](=O)[O-])cc1O)OCc1ccccc1 | 200
21 | OC(c1ccc(F)cc1)(c1ccc(F)cc1)C1CCN(Cc2ccccc2)C1 (configuration not stated) | 99 to 100
22 | O=C(Oc1ccc(Cl)cc1)n1c2c(c(=O)n(C3CCCCO3)c1=O)CCC2 (configuration not stated) | 126

Row | Structure (SMILES) | melting point [°C]
23 | CCN(CC)C(=O)c1ccc([N+](=O)[O-])c(C)c1 | 74.5 to 76
24 | COc1ccc2[nH]cc(/C(C#N)=C/c3ccc(Cl)nc3)c2c1 | 184
25 | CC(CS)C(=O)N1CCCC1C(=O)NC(C)C(=O)O (configuration not stated) | 128 to 130
26 | NCc1ccc2cc(O)ccc2c1 | 188 to 192
27 | O=c1c2ccc(Cl)cc2n(Cc2ccccc2)n2c(Cl)ccc12 | 134 to 136
28 | COc1cc2ncc(C#N)c(Nc3ccc(C(N)=O)cc3)c2cc1OC | > 250
29 | O=[N+]([O-])c1c(NCCO)cccc1NCCO | 103 to 104
30 | OCCC1CCc2cc(OCc3ccc(-c4ccccc4)cc3)ccc2C1 (configuration not stated) | 101 to 102
31 | O=C(Nc1ccc(C(F)(F)F)cc1)c1ccc(C=NO)cc1 | 221 to 222
32 | CN(C)c1ccc(NC(=O)C(C#N)C(=O)c2nn(-c3ccccc3)c3c2CSc2ccccc2-3)cc1 (configuration not stated) | 215 to 216
33 | CC12CCC(=O)C=C1CCC1C2=CCC2(C)C1CCC2(OC=O)C(=O)CCl (configuration not stated) | 203
34 | CCN1CCN(C(=O)Cc2ccc(I)cc2)CC1 | 81 to 83
35 | CCCCCCCCCCCCCCOC(=O)CCCCc1cc(O)c(O)c([N+](=O)[O-])c1 | 46 to 47
36 | O=C(O)CNc1cc(Cl)ccc1[N+](=O)[O-] | 147 to 148
37 | CC(=O)Nc1c(C(O)(C(F)(F)F)C(F)(F)F)cc(Cl)c2ccccc12 | 161 to 162
38 | Cc1ccc(OCCOc2ccc(C)cc2)cc1 | 134
39 | Cc1cc(Oc2ncc(Cl)cc2Cl)n[nH]1 | 109 to 111
40 | c1ccnc2ccccc2c2ccccc2cc1 | 165 to 167
41 | COc1ccc(C2=NN(C3CCCC3)C(=O)[C@H]3CC=CC[C@@H]23)cc1OC1CCCC1 (relative stereo) | 144 to 145
42 | Cc1ccccc1C1=NOC2(C1)OC(=O)c1ccccc12 (configuration not stated) | 146 to 149
43 | Clc1ccc(CN2CC=C(/C=C/c3ccc4[nH]ccc4c3)CC2)cc1 | 165
44 | Nc1cccc(CCCOCCCCCCNCC(O)c2cc(Cl)c(N)c(Cl)c2)n1 (configuration not stated) | 62 to 65

More lines, now with the values ahead:

Row | melting point [°C] | Structure (SMILES)
45 | 220 | CS(=O)(=O)Oc1cnc2cc(C(F)(F)F)ccc2c1O
46 | 148 to 150 | Cc1[nH]c(C(=O)N2CC=CN2)c(C)c1-c1nc2ccc(C(=O)c3ccccc3)cc2[nH]1
47 | 101 | CC(C)N1CCN(Cc2cc(NC(=O)Nc3ccc(Oc4cc(Cl)ncn4)cc3)cc(C(F)(F)F)c2)CC1
48 | 137 to 138 | CC(=O)NC(C)(C)c1ccc(CN2CCN(c3ncccn3)CC2)cc1
49 | 214 to 216 | COc1nc2ccccc2c2c1ncn2CC(O)CO (configuration not stated)
50 | 102 to 114 | COCCOc1ccc(/C=C/C(=O)O)c(OC2CCCCC2)c1
51 | 170 | Cc1nc2n(C)nc(C)n2c(=O)c1CCO
52 | 219 to 220 | CCCc1nn(C)c2c(=O)[nH]c(-c3sc(S(=O)(=O)N4CCN(C)CC4)cc3OCC)nc12
53 | 205 to 207 | Cc1nc(N)c2nc(C)n(CCOCCNC(=O)N3CCOCC3)c2c1C
54 | 145 to 150 | CC(C)c1cc(OCCN2CCOCC2)cc2c1C(=O)N(COc1cc(=O)n3cccc(OCCCN4CCOCC4)c3n1)S2(=O)=O
55 | 190 to 192 | Cc1cn(-c2ccc(N3C[C@H](CO)OC3=O)cc2F)nn1
56 | 211 to 214 | CC(C)Nc1cccnc1N1CCN(C(=O)c2ccc(C(=O)O)cn2)CC1
57 | 170 | CN1CCN(C(=O)OC2C3=C(SCCS3)C(=O)N2c2ccc(Cl)cn2)CC1 (configuration not stated)
58 | 188 to 191 | CC(=O)n1nc(-c2c(C)cc(C)c([N+](=O)[O-])c2C)n2nc(C(C)(C)C)c(Cl)c12
59 | 138 to 140 | Cn1cnc2c1c(=O)n(CC(O)CN1CCN(C(c3ccc(F)cc3)c3ccc(F)cc3)CC1)c(=O)n2C (configuration not stated)
60 | 132 to 133 | CCOC(=O)/C=C/c1cn(-c2ccc(C(F)(F)F)cn2)nc1C1CCCCC1
61 | 132 to 136 | CO[C@@H](C(=O)N[C@H]1CC[C@@H](OC(=O)Cc2ccc(Cl)c(Cl)c2)CNC1=O)[C@H](O)[C@@H](O)[C@H](O)/C=C/C(C)(C)C
62 | 234 | Cn1cncc1C(O)(c1ccc(Cl)cc1)c1ccc2c(c1)c(-c1cccc(Cl)c1)cc(=O)n2C (configuration not stated)
63 | 87 to 88 | CCC(CC)(CO)CCCS(=O)(=O)N=CN(C)C
64 | 128 to 129 | CC(C)(C)OC(=O)N1CC[C@H](c2ccc3c(c2)OCO3)[C@@H](OCc2ccc3ccccc3c2)C1 (racemic)
65 | 256 to 257 | CCCCCCOc1ccc(C(=O)Nc2ccc(C(=O)O)cc2)cc1C12CC3CC(CC(C3)C1)C2
66 | 95.5 to 96.3 | COC(=O)c1nc(C)c(-c2ccncc2C)s1
67 | 355 to 357 | NC(=O)c1nc(-c2cccc(O)c2)nc2c1[nH]c(=O)n2[C@H]1CC[C@H](O)CC1
68 | 174 to 176 | CCOC(=O)c1cc(C(=O)CBr)[nH]n1
69 | 169 | CCOC(=O)C1=C(CC)Nc2n[nH]cc2C1c1ccccc1OC (configuration not stated)
70 | 305 to 308 | O=c1[nH]c2ncc(-c3ccc4[nH]ccc4c3)nc2n1CC1CCOCC1
71 | 65 to 66 | CCCc1c(SCCCOc2ccc(C(C)=O)c(OCCCC(=O)OCC)c2CCC)ccc(C(C)=O)c1O
72 | 162 to 164 | CCC#CC(C)(C)NC(=O)C(CC)Oc1cncc(C(=O)O)c1 (configuration not stated)
